In patent US20050245520A1, “2-Phenylpyridin-4-yl derivatives as alk5 inhibitors” (priority 2002, published 2005):
Like-named read-outs stand apart in the source and are kept apart here.

Legend:
[1] = test system: TGF-β signalling (PAI-1 promoter-luciferase in HepG2 cells); experiment: Cellular transcriptional assay: PAI-1 promoter firefly luciferase reporter in cells exposed to TGF-β; format: cell-based; conditions: HepG2 cells, 1 ng/mL rhTGFβ-1
Protocol: Assay 1 (Cellular Transcriptional Assay)
The assay was performed in HepG2 cells stably transfected with the PAI-1 promoter (known to be a strong TGF-β responsive promoter) linked to a luciferase (firefly) reporter gene. The compounds were selected on their ability to inhibit luciferase activity in cells exposed to TGF-β. In addition, cells were transfected with a second luciferase (Renilla) gene which was not driven by a TGF-β responsive promoter and was used as a toxicity control.
96 well microplates were seeded, using a multidrop apparatus, with the stably transfected cell line at a concentration of 35000 cells per well in 200 μl of serum-containing medium. These plates were placed in a cell incubator.
18 to 24 hours later (Day 2), cell-incubation procedure was launched. Cells were incubated with TGF-β and a candidate compound at concentrations in the range 50 nM to 10 μM (final concentration of DMSO 1%). The final concentration of TGF-β (rhTGFβ-1) used in the test was 1 ng/mL. Cells were incubated with a candidate compound 15-30 mins prior to the addition of TGF-β. The final volume of the test reaction was 150 μl. Each well contained only one candidate compound and its effect on the PAI-1 promoter was monitored.
Columns 11 and 12 were employed as controls. Column 11 contained 8 wells in which the cells were incubated in the presence of TGF-β, without a candidate compound. Column 11 was used to determine the ‘reference TGF-β induced firefly luciferase value’ against which values measured in the test wells (to quantify inhibitory activity) were compared. […]
12 to 18 hours later (day 3), the luciferase quantification procedure was launched. […] Following agitation (15 to 30 mins), luciferase activities of the plates were read in a dual-injector luminometer (BMG lumistar). For this purpose, 50 μl of luciferase assay reagent and 50 μl of ‘Stop & Glo’ buffer were injected sequentially to quantify the activities of both luciferases. […] For each of the compounds tested, a concentration response curve was constructed from which an IC50 value was determined graphically.

[2] = molecular target: T1, recombinant GST-ALK5 (residues 198-503) (Homo sapiens, UniProt P36897); experiment: Alk5 fluorescence polarization assay (displacement of rhodamine green-labelled ligand); format: binding
T1 construct: assays using recombinant GST-ALK5 (residues 198-503)
T1 sequence (P36897 198-503): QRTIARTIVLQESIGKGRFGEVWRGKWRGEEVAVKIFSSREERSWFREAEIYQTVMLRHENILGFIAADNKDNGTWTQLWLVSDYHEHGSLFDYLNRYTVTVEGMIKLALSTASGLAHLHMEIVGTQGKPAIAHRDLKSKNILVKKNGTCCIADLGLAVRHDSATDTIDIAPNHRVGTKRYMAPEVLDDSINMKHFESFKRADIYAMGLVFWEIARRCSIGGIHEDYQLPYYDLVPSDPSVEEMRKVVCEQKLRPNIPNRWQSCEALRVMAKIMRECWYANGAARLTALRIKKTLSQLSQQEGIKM
Protocol: Kinase inhibitor compounds conjugated to fluorophores, can be used as fluorescent ligands to monitor ATP competitive binding of other compounds to a given kinase. The increase in depolarization of plane polarized light, caused by release of the bound ligand into solution, is measured as a polarization/anisotropy value.
The compounds were serially diluted (3-fold in 100% DMSO) across the plate to column 11 to yield 11 concentrations for each test compound. Column 12 contained only DMSO.
ALK5 was added to assay buffer containing the above components and 1 nM of the rhodamine green-labelled ligand so that the final ALK5 concentration was 10 nM based on active site titration of the enzyme. The enzyme/ligand reagent (39 μl) was added to each well of the previously prepared assay plates. […] The plates were read immediately on a LJL Acquest fluorescence reader (Molecular Devices, serial number AQ1048) with excitation, emission, and dichroic filters of 485 nm, 530 nm, and 505 nm, respectively. The fluorescence polarization for each well was calculated by the Acquest reader and then imported into curve fitting software for construction of concentration response curves. The normalized response was determined relative to the high controls (1 μl DMSO in column 12, rows A-D) and the low controls (1 μl of control compound in column 12, rows E-H). An IC50 value was then calculated for each compound

IC50 [1] | IC50 ([2]; fluorescence polarization, 10 nM ALK5, 1 nM labelled ligand, read-out: ALK5 receptor modulator activity (IC50)) | IC50 ([1]; Homo sapiens) | IC50 [2] | SMILES
0.183 µM | 0.034 µM | – | – | Cc1cccc(-c2[nH]c(C(C)(C)C)nc2-c2ccnc(-c3ccc(N4CCOCC4)cc3)c2)n1 [Example 86, 4-{4-[4-(2-tert-Butyl-5-{6-methyl}-pyridin-2-yl-1 H-imidazol-4-yl)-pyridin-2-yl]-phenyl}-morpholine]
– | – | < 0.014 µM | 0.025 µM | Cc1cccc(-c2nc(C(C)C)[nH]c2-c2ccnc(-c3ccc(C(=O)NC4CCOCC4)cc3)c2)n1 [Example 96, N-(tetrahydropyran-4-yl)-4-(4-{2-isopropyl-5-[6-methyl-pyridin-2-yl]-1H-imidazol-4-yl}-pyridin-2-yl)-benzamide]
